These results are taken from article PMC9232612, “A phase 1b randomised controlled trial of a glucagon-like peptide-1 and glucagon receptor dual agonist IBI362 (LY3305677) in Chinese patients with type 2 diabetes” (Nature Communications, 2022).

A short description of this series: Immunogenicity: anti-IBI362 antibody (ADA) and neutralizing antibody. The format is in vivo, human. The text has this:
Standard non-compartmental pharmacokinetics methods were used to analyze IBI362 plasma concentration data using Pkanalix 2020R1 (Lixoft, Antony, France). Secondary efficacy outcomes included change from baseline to week 12 in HbA1c, fasting plasma glucose (FPG), fasting insulin levels, change from baseline to week 12 in post-mixed-meal tolerance test (post-MTT) glucose, insulin, C peptide, GLP-1 and OXM levels, as well as seven-point self-measured blood glucose (SMBG) profile.
Safety analyses were done in the safety population (defined as all patients who received at least one dose of the study treatment). Pharmacokinetic analyses were done in the pharmacokinetic population (defined as all patients who received at least one dose of IBI362 and had at least one valid plasma concentration assessment). Efficacy analyses were done in the efficacy population (defined as all patients who received at least one dose of the study treatment and had baseline and at least one post-baseline HbA1c assessment). Immunogenicity analyses were done in the immunogenicity population (defined as all patients who received at least one dose of the study treatment and had at least one post-baseline ADA result).
IBI362 Innovent Biologics (Suzhou) Co., Ltd. CIBI362A101
[…] Within 1 hour before D57 administration in Week 9; […]

With `CC(C)C[C@H](NC(=O)[C@H](CC(C)C)NC(=O)[C@H](Cc1c[nH]c2ccccc12)NC(=O)[C@H](CCC(=O)O)NC(=O)[C@@H](NC(=O)[C@H](Cc1ccccc1)NC(=O)[C@H](CCC(=O)O)NC(=O)[C@H](CCCCNC(=O)COCCOCCNC(=O)COCCOCCNC(=O)CC[C@H](NC(=O)CCCCCCCCCCCCCCCCCCC(=O)O)C(=O)O)NC(=O)[C@H](C)NC(=O)[C@H](CCCCN)NC(=O)[C@H](CCCCN)NC(=O)[C@H](CCC(=O)O)NC(=O)[C@H](CC(=O)O)NC(=O)[C@H](CC(C)C)NC(=O)[C@H](Cc1ccc(O)cc1)NC(=O)[C@H](CCCCN)NC(=O)[C@H](CO)NC(=O)[C@H](Cc1ccc(O)cc1)NC(=O)[C@H](CC(=O)O)NC(=O)[C@H](CO)NC(=O)[C@@H](NC(=O)[C@H](Cc1ccccc1)NC(=O)[C@@H](NC(=O)CNC(=O)[C@H](CCC(N)=O)NC(=O)C(C)(C)NC(=O)[C@@H](N)Cc1c[nH]cn1)[C@@H](C)O)[C@@H](C)O)C(C)C)C(=O)N[C@@H](CCC(=O)O)C(=O)NCC(=O)NCC(=O)N1CCC[C@H]1C(=O)N[C@@H](CO)C(=O)N[C@@H](CO)C(=O)NCC(N)=O` [IBI362], the “patients who developed anti-IBI362 antibody” value (all IBI362 cohorts, n=24 (four patients)) was determined as 16.7%. The neutralizing antibodies result (post-baseline samples) is on record as “No neutralizing antibodies were detected”.
